In ChEMBL document CHEMBL1201862, “PubChem BioAssay data set” (2004):
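These data come from cells grown in 96-well plates and exposed to compound for 48 hours at five concentrations. Abbreviation: GI50, concentration required for 50% inhibition of growth.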 Active and inactive are the calls of the source. No stated cut-off is given here; in the data, active = GI50 up to about 1.1 µM and inactive = higher.

Assays:
Experiment in all cases: growth of human tumour cells (NCI), 48 h
786-0 = system: 786-0
A498 = system: A498
A549 = system: A549
ACHN = system: ACHN
BT-549 = system: BT-549
CAKI-1 = system: CAKI-1
CCRF-CEM = system: CCRF-CEM
COLO 205 = system: COLO 205
DU-145 = system: DU-145
EKVX = system: EKVX
HCC 2998 = system: HCC 2998
HCT-116 = system: HCT-116
HCT-15 = system: HCT-15
HL-60 = system: HL-60
HOP-62 = system: HOP-62
HOP-92 = system: HOP-92
HT-29 = system: HT-29
Hs-578T = system: Hs-578T
IGROV-1 = system: IGROV-1
K562 = system: K562
KM12 = system: KM12
LOX IMVI = system: LOX IMVI
M14 = system: M14
MCF7 = system: MCF7
MDA-MB-231 = system: MDA-MB-231
MDA-MB-435 = system: MDA-MB-435
MDA-N = system: MDA-N
MOLT-4 = system: MOLT-4
Malme-3M = system: Malme-3M
NCI-H226 = system: NCI-H226
NCI-H23 = system: NCI-H23
NCI-H460 = system: NCI-H460
NCI-H522 = system: NCI-H522
NCI/ADR-RES = system: NCI/ADR-RES
OVCAR-3 = system: OVCAR-3
OVCAR-4 = system: OVCAR-4
OVCAR-5 = system: OVCAR-5
OVCAR-8 = system: OVCAR-8
PC-3 = system: PC-3
RPMI-8226 = system: RPMI-8226
RXF 393 = system: RXF 393
SF-268 = system: SF-268
SF-295 = system: SF-295
SF-539 = system: SF-539
SK-MEL-28 = system: SK-MEL-28
SK-MEL-5 = system: SK-MEL-5
SN12C = system: SN12C
SNB-19 = system: SNB-19
SNB-75 = system: SNB-75
SR = system: SR
SW-620 = system: SW-620
T47D = system: T47D
TK-10 = system: TK-10
U-251 = system: U-251
UACC-257 = system: UACC-257
UO-31 = system: UO-31
SK-MEL-2 = system: SK-MEL-2
SK-OV-3 = system: SK-OV-3
UACC-62 = system: UACC-62

CC[C@@H]1CC[C@@H]2[C@H](CC[C@]3(C)[C@@H](OS(=O)(=O)c4ccc(C)cc4)CC[C@@H]23)[C@H]1CO
GI50 (786-0): > 100 µM (inactive) | GI50 (A498): > 100 µM (inactive) | GI50 (A549): > 100 µM (inactive) | GI50 (ACHN): > 100 µM (inactive) | GI50 (BT-549): > 100 µM (inactive) | GI50 (CAKI-1): > 100 µM (inactive) | GI50 (CCRF-CEM): > 100 µM (inactive) | GI50 (COLO 205): 12.4 µM (inactive) | GI50 (DU-145): > 100 µM (inactive) | GI50 (EKVX): 12.2 µM (inactive) | GI50 (HCC 2998): > 100 µM (inactive) | GI50 (HCT-116): > 100 µM (inactive) | GI50 (HCT-15): 82.4 µM | GI50 (HL-60): 17.8 µM (inactive) | GI50 (HOP-62): > 100 µM (inactive) | GI50 (HOP-92): > 100 µM (inactive) | GI50 (HT-29): 27.3 µM (inactive) | GI50 (Hs-578T): > 100 µM (inactive) | GI50 (IGROV-1): > 100 µM (inactive) | GI50 (K562): 69.2 µM (inactive) | GI50 (KM12): > 100 µM (inactive) | GI50 (LOX IMVI): 23.8 µM (inactive) | GI50 (M14): 87.3 µM (inactive) | GI50 (MCF7): 43.3 µM (inactive) | GI50 (MDA-MB-231): > 100 µM (inactive) | GI50 (MDA-MB-435): > 100 µM (inactive) | GI50 (MDA-N): > 100 µM (inactive) | GI50 (MOLT-4): > 100 µM (inactive) | GI50 (Malme-3M): > 100 µM (inactive) | GI50 (NCI-H226): > 100 µM (inactive) | GI50 (NCI-H23): > 100 µM (inactive) | GI50 (NCI-H460): > 100 µM (inactive) | GI50 (NCI-H522): > 100 µM (inactive) | GI50 (NCI/ADR-RES): > 100 µM (inactive) | GI50 (OVCAR-3): > 100 µM (inactive) | GI50 (OVCAR-4): > 100 µM (inactive) | GI50 (OVCAR-5): > 100 µM (inactive) | GI50 (OVCAR-8): > 100 µM (inactive) | GI50 (PC-3): 82 µM (inactive) | GI50 (RPMI-8226): 17 µM (inactive) | GI50 (RXF 393): > 100 µM (inactive) | GI50 (SF-268): > 100 µM (inactive) | GI50 (SF-295): > 100 µM (inactive) | GI50 (SF-539): 81.5 µM (inactive) | GI50 (SK-MEL-28): > 100 µM (inactive) | GI50 (SK-MEL-5): 42.6 µM (inactive) | GI50 (SN12C): 78.5 µM (inactive) | GI50 (SNB-19): > 100 µM (inactive) | GI50 (SNB-75): 91 µM (inactive) | GI50 (SR): > 100 µM (inactive) | GI50 (SW-620): > 100 µM (inactive) | GI50 (T47D): 29.2 µM (inactive) | GI50 (TK-10): > 100 µM (inactive) | GI50 (U-251): > 100 µM (inactive) | GI50 (UACC-257): 80.2 µM (inactive) | GI50 (UO-31): 21.3 µM (inactive)

CN(O)C(=O)/C=C/c1ccc(OCc2cccc(Cl)c2)cc1
GI50 (786-0): 18.7 µM (inactive) | GI50 (A498): 17 µM (inactive) | GI50 (A549): 21.2 µM (inactive) | GI50 (ACHN): 14.5 µM (inactive) | GI50 (BT-549): 21.8 µM (inactive) | GI50 (CAKI-1): 26.4 µM (inactive) | GI50 (CCRF-CEM): 8.26 µM (inactive) | GI50 (COLO 205): 28.9 µM (inactive) | GI50 (DU-145): 20.8 µM (inactive) | GI50 (EKVX): 26.5 µM (inactive) | GI50 (HCC 2998): 23.6 µM (inactive) | GI50 (HCT-116): 16.8 µM (inactive) | GI50 (HCT-15): 12.9 µM | GI50 (HL-60): 18 µM (inactive) | GI50 (HOP-62): 24.4 µM (inactive) | GI50 (HOP-92): 24.3 µM (inactive) | GI50 (HT-29): 18 µM (inactive) | GI50 (Hs-578T): 61.7 µM (inactive) | GI50 (IGROV-1): 17.3 µM (inactive) | GI50 (K562): 36.1 µM (inactive) | GI50 (KM12): 17.7 µM (inactive) | GI50 (LOX IMVI): 11.2 µM (inactive) | GI50 (M14): 28 µM (inactive) | GI50 (MCF7): 48.6 µM (inactive) | GI50 (MDA-MB-231): 43.9 µM (inactive) | GI50 (MDA-MB-435): 32.2 µM (inactive) | GI50 (MDA-N): 43.1 µM (inactive) | GI50 (MOLT-4): 8.77 µM (inactive) | GI50 (NCI-H226): 21.4 µM (inactive) | GI50 (NCI-H23): 16.3 µM (inactive) | GI50 (NCI-H460): 16.5 µM (inactive) | GI50 (NCI-H522): 25.7 µM (inactive) | GI50 (NCI/ADR-RES): 19.7 µM (inactive) | GI50 (OVCAR-3): 38.6 µM (inactive) | GI50 (OVCAR-4): 19.6 µM (inactive) | GI50 (OVCAR-5): 39.7 µM (inactive) | GI50 (OVCAR-8): 16.3 µM (inactive) | GI50 (PC-3): 24.5 µM (inactive) | GI50 (RPMI-8226): 27.5 µM (inactive) | GI50 (RXF 393): 30.7 µM (inactive) | GI50 (SF-268): 23.9 µM (inactive) | GI50 (SF-295): 22.8 µM (inactive) | GI50 (SF-539): 29.2 µM (inactive) | GI50 (SK-MEL-28): 38.5 µM (inactive) | GI50 (SK-MEL-2): 23.8 µM (inactive) | GI50 (SK-MEL-5): 24.2 µM (inactive) | GI50 (SK-OV-3): 25.6 µM (inactive) | GI50 (SN12C): 20.1 µM (inactive) | GI50 (SNB-19): 42.5 µM (inactive) | GI50 (SNB-75): 26.4 µM (inactive) | GI50 (SR): 7.06 µM (inactive) | GI50 (SW-620): 26.9 µM (inactive) | GI50 (T47D): 20.1 µM (inactive) | GI50 (TK-10): 48.6 µM (inactive) | GI50 (U-251): 22 µM (inactive) | GI50 (UACC-257): 51.8 µM (inactive) | GI50 (UACC-62): 15 µM (inactive) | GI50 (UO-31): 10.1 µM (inactive)
